# Measurements as given in ChEMBL document CHEMBL5352428, “Covalent inhibitors of bacterial peptidoglycan biosynthesis enzyme MurA with chloroacetamide warhead” (Eur J Med Chem, 2022).
# pIC50: −log10 of the molar value. Calls of active or inactive are those of the source. The calls are words filed in the database; no cut-off is given here.
# Legend:
# [1] = target: UDP-N-acetylglucosamine 1-carboxyvinyltransferase (Escherichia coli K-12) (UniProt P0A749); assay: (§1) Inhibition of recombinant Escherichia coli MurA expressed in Escherichia coli NiCo21 assessed as residual activity using UNAG and PEP as substrate at 500 uM preincubated for 30 mins in presence of UNAG followed by PEP substrate addition and measured after 15 mins by malachite green based colorimetric assay; conditions: time 45.0 min
# [2] = Thiol reactivity of compound at pH 7.4 buffer assessed as fold decrease by measuring second order rate constant at 100 uM and measured for 4 hrs every 5 mins in presence of DTNB and TCEP by microplate reader analysis relative to Iodoacetamide; format: physicochemical; conditions: pH 7.4, 4 h
# [3] = Thiol reactivity of compound at pH 7.4 buffer at 100 uM and measured for 4 hrs every 5 mins in presence of DTNB and TCEP by microplate reader analysis; format: physicochemical; conditions: pH 7.4, 4 h
# Staphylococcus aureus [4] = assay: Antibacterial activity against Staphylococcus aureus ATCC 29213 assessed as bacterial growth inhibition incubated for 24 hrs by broth dilution method; format: functional
# Escherichia coli [5] = assay: Antibacterial activity against Escherichia coli ATCC 25922 assessed as bacterial growth inhibition incubated for 24 hrs by broth dilution method; format: functional
# [6] = target: T1, UDP-N-acetylglucosamine 1-carboxyvinyltransferase (Escherichia coli K-12, UniProt P0A749); assay: Inhibition of recombinant Escherichia coli MurA expressed in Escherichia coli NiCo21 using UNAG and PEP as substrate preincubated for 30 mins in presence of UNAG followed by PEP substrate addition and measured after 15 mins by malachite green based colorimetric assay
# [7] = target: UDP-N-acetylglucosamine 1-carboxyvinyltransferase (Escherichia coli K-12) (UniProt P0A749); assay: Inhibition of recombinant Escherichia coli MurA expressed in Escherichia coli NiCo21 using UNAG and PEP as substrate and measured for 15 mins by malachite green based colorimetric assay
# [8] = target: T1, UDP-N-acetylglucosamine 1-carboxyvinyltransferase; assay: Inhibition of recombinant Escherichia coli MurA expressed in Escherichia coli NiCo21 using UNAG and PEP as substrate preincubated for 15 mins in presence of UNAG followed by PEP substrate addition and measured after 15 mins by malachite green based colorimetric assay
# [9] = target: UDP-N-acetylglucosamine 1-carboxyvinyltransferase (Escherichia coli K-12) (UniProt P0A749); assay: as §1, with “Irreversible inhibition” for “Inhibition”, “400” for “500”; conditions: time 45.0 min
# [10] = target: UDP-N-acetylglucosamine 1-carboxyvinyltransferase (Escherichia coli K-12) (UniProt P0A749); assay: (§2) Irreversible inhibition of recombinant Escherichia coli MurA expressed in Escherichia coli NiCo21 assessed as residual activity using UNAG and PEP as substrate at 400 uM preincubated for 30 mins in presence of UNAG followed by 100 fold dilution and PEP substrate addition and measured after 15 mins by malachite green based colorimetric assay; conditions: time 45.0 min
# [11] = target: UDP-N-acetylglucosamine 1-carboxyvinyltransferase (Escherichia coli K-12) (UniProt P0A749); assay: as §2, with “NiCo21” for “NiCo21 assessed as residual activity”, “assessed as second-order rate constant for enzyme inactivation, ratio of Kinact/Ki” for “at 400 uM”; conditions: time 45.0 min
# [12] = target: UDP-N-acetylglucosamine 1-carboxyvinyltransferase (Escherichia coli K-12) (UniProt P0A749); assay: Binding affinity to UNAG activated recombinant Escherichia coli MurA Cys115 residue at 5 mM incubated for 30 mins in presence of UNAG by LC-MS/MS analysis
# Staphylococcus aureus [13] = assay: Antibacterial activity against Staphylococcus aureus ATCC 29213 assessed as bacterial growth inhibition at <= 128 ug/ml incubated for 24 hrs by broth dilution method; format: functional, organism-based; conditions: dose <= 128.0 µg/ml
# Escherichia coli [14] = assay: Antibacterial activity against Escherichia coli ATCC 25922 assessed as bacterial growth inhibition at <=128 ug/ml incubated for 24 hrs by broth dilution method; format: functional, organism-based; conditions: dose <= 128.0 µg/ml
# Sequence of UDP-N-acetylglucosamine 1-carboxyvinyltransferase (Escherichia coli K-12) (P0A749 whole entry): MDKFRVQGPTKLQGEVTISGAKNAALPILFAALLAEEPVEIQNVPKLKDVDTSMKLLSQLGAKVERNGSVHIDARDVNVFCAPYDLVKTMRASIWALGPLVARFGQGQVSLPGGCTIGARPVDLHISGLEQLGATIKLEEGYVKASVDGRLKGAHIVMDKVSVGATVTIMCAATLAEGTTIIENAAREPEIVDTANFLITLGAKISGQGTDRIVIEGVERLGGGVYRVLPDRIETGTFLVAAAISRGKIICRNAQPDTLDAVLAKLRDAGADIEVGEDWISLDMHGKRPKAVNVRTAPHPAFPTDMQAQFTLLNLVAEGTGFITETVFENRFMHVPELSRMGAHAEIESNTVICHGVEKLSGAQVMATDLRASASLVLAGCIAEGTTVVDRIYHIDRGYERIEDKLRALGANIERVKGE
# T1 sequence (P0A749 whole entry): as above
structure (smiles),measurement,setting,value
O=C(CCl)N1CCN(CCC2CCCCC2)CC1,Activity,[1],81%
same,fold change (FC),[2],3
same,Drug metabolism,[3],Metabolite_Detected
same,MIC,Staphylococcus aureus [4],4 µg/mL
same,MIC,Escherichia coli [5],16 µg/mL
O=C(CCl)NC1CCCC2CCCCC21 (stereo unspecified),pIC50,[6],4.41
same,fold change (FC),[2],33
same,Drug metabolism,[3],Metabolite_Notdetected
same,inhibition,[7],inactive
same,pIC50,[8],3.40
same,Activity,[9],1.6%
same,Activity,[10],inactive
same,Ratio,[11],4.78 10^-3/µM/min
same,Activity,[12],Active
same,Activity,Staphylococcus aureus [13],inactive
same,Activity,Escherichia coli [14],inactive
